For nine compounds, GI50 and TGI results are on record in PubChem BioAssay (NCI).

Some test systems named below: OVCAR-3 ovarian; SK-MEL-28 melanoma; NCI-H522 lung; UACC-62 melanoma; A549 NSCLC; HL-60(TB) leukemia; SF-295 CNS; HCT-15 colon; M14 melanoma; MOLT-4 leukemia.
What all share (assay): DTP human tumour cell line panel, 48 h

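Briefly, cells in 96-well plates were exposed to five compound concentrations for 48 h, and endpoints were estimated by linear interpolation. At the GI50, growth is halved. TGI: total growth inhibition.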

With `O=c1nc2oc3ccc4ccccc4c3cc-2s1`, the GI50 was 457 nM in the assay on OVCAR-3 ovarian; 14600 nM in the assay with SK-MEL-28 melanoma; 596 nM with NCI-H522 lung; 1220 nM in the assay on UACC-62 melanoma; above 92700 nM in the assay on A549 NSCLC; 1410 nM with HL-60(TB) leukemia. Further, the GI50 was 2960 nM with SF-295 CNS, above 45700 nM in the assay on HCT-15 colon, 1090 nM in the assay on M14 melanoma and 1810 nM in the assay with MOLT-4 leukemia. Moreover, the TGI in the assay with OVCAR-3 ovarian is above 23.7 µM; in the assay on SK-MEL-28 melanoma it was above 100 µM; in the assay on NCI-H522 lung, above 100 µM; in the assay with UACC-62 melanoma it was above 100 µM; in the assay on A549 NSCLC, above 100 µM; with HL-60(TB) leukemia it was above 100 µM. For the same compound, the TGI with SF-295 CNS was above 92.7 µM; in the assay on HCT-15 colon it was above 100 µM; in the assay with M14 melanoma, above 100 µM; in the assay with MOLT-4 leukemia, above 100 µM.

Regarding `COc1cccc(-n2ncc3c(N/N=C/c4ccncc4)ncnc32)c1`, the GI50 in the assay with OVCAR-3 ovarian was 1900 nM; in the assay with SK-MEL-28 melanoma, above 25000 nM; in the assay with NCI-H522 lung, above 14500 nM; in the assay on UACC-62 melanoma, 4280 nM; in the assay on A549 NSCLC it was above 14500 nM; with HL-60(TB) leukemia, 8660 nM. The GI50 with SF-295 CNS was 1350 nM; in the assay with HCT-15 colon, 3570 nM; in the assay on M14 melanoma it was 3560 nM; with MOLT-4 leukemia, above 25000 nM. In addition, the TGI in the assay on OVCAR-3 ovarian, in the assay on SK-MEL-28 melanoma, in the assay with NCI-H522 lung, with UACC-62 melanoma, in the assay on A549 NSCLC and in the assay with HL-60(TB) leukemia was above 25 µM each time. Also, the TGI with SF-295 CNS, in the assay with HCT-15 colon, in the assay with M14 melanoma and in the assay on MOLT-4 leukemia was above 25 µM throughout.

Regarding `COc1c2c(nc3ccccc13)-c1cc3c(c(=O)n1C2)COC(=O)C3(O)CC(=O)N1CCOCC1` (configuration not stated), the TGI with OVCAR-3 ovarian is 55 µM; in the assay with SK-MEL-28 melanoma it was above 98.2 µM; with NCI-H522 lung, 31.4 µM; in the assay with UACC-62 melanoma, 8.35 µM; in the assay with A549 NSCLC it was above 92.4 µM; with HL-60(TB) leukemia it was 17.6 µM. Moreover, the TGI in the assay with SF-295 CNS is 31.7 µM; with HCT-15 colon it was above 100 µM; in the assay with M14 melanoma, 41.4 µM; with MOLT-4 leukemia, 5.03 µM.

For `CN(C)c1ccc2c(c1)OC(N)=C(C#N)C2c1ccc2c(c1)CCO2` (configuration not stated), the GI50 in the assay with OVCAR-3 ovarian is below 21.3 nM; in the assay with SK-MEL-28 melanoma it was 1920 nM; with NCI-H522 lung, below 23.9 nM; with UACC-62 melanoma, below 20.5 nM; in the assay on A549 NSCLC, 198 nM; in the assay with HL-60(TB) leukemia it was 93.9 nM. In addition, the GI50 with SF-295 CNS is below 20.8 nM; with HCT-15 colon it was below 26.2 nM; in the assay with M14 melanoma, 41.7 nM; with MOLT-4 leukemia, 300 nM. Besides, the TGI in the assay with OVCAR-3 ovarian was 1.88 µM; in the assay with SK-MEL-28 melanoma it was 29.5 µM; in the assay with UACC-62 melanoma, 21.9 µM; in the assay with A549 NSCLC it was above 100 µM; in the assay with HL-60(TB) leukemia, 0.491 µM; in the assay with SF-295 CNS, 1.95 µM. Moreover, the TGI in the assay on HCT-15 colon was above 100 µM; with M14 melanoma, 11.4 µM; in the assay on MOLT-4 leukemia, 32.4 µM.

As for `CN1CC[C@@H](c2c(O)cc(O)c3c(=O)cc(-c4ccccc4Cl)oc23)[C@@H]1CO`, the GI50 in the assay with OVCAR-3 ovarian is 278 nM; with SK-MEL-28 melanoma it was 270 nM; in the assay with NCI-H522 lung, 357 nM; in the assay with UACC-62 melanoma it was 184 nM; in the assay with A549 NSCLC, 368 nM; in the assay with HL-60(TB) leukemia it was 313 nM. In addition, the GI50 in the assay with SF-295 CNS is 335 nM; with HCT-15 colon, 351 nM; in the assay on M14 melanoma, 331 nM; in the assay on MOLT-4 leukemia it was 295 nM. The TGI in the assay on OVCAR-3 ovarian was 2.17 µM; with SK-MEL-28 melanoma, 1.24 µM; with NCI-H522 lung, 2.76 µM; in the assay with UACC-62 melanoma it was 0.578 µM; in the assay with A549 NSCLC, above 10 µM; with HL-60(TB) leukemia, 1.99 µM. In addition, the TGI in the assay with SF-295 CNS is above 10 µM; in the assay on HCT-15 colon, above 10 µM; in the assay on M14 melanoma it was 1.26 µM; with MOLT-4 leukemia, above 3.79 µM.

As for `Cc1[nH]c2ccccc2c1C1Cc2ccccc2N1C(=O)/C=C/C(=O)O` (configuration not stated), the TGI with OVCAR-3 ovarian, in the assay on NCI-H522 lung, in the assay on UACC-62 melanoma, in the assay with A549 NSCLC, in the assay on HL-60(TB) leukemia and with SF-295 CNS was above 100 µM each time. Moreover, the figures for the TGI with HCT-15 colon, in the assay on M14 melanoma and in the assay on MOLT-4 leukemia were 33 µM, above 100 µM and above 100 µM, respectively.

Regarding `COc1cc(C(=O)NC2CCN(C)CC2)c(F)cc1Nc1ncc2c(n1)N(C1CCCC1)CC(F)(F)C(=O)N2C`, the GI50 was below 15.5 nM with OVCAR-3 ovarian; below 20.9 nM in the assay on SK-MEL-28 melanoma; below 10 nM with NCI-H522 lung; below 23.7 nM with UACC-62 melanoma; below 18.4 nM in the assay with A549 NSCLC; below 10 nM with HL-60(TB) leukemia. Besides, the GI50 with SF-295 CNS is below 17.6 nM; with HCT-15 colon, below 21.3 nM; in the assay on M14 melanoma, 23.5 nM; in the assay on MOLT-4 leukemia, 17.1 nM. For the same compound, the TGI with OVCAR-3 ovarian is 5.87 µM; with SK-MEL-28 melanoma, 16.2 µM; in the assay on NCI-H522 lung it was below 0.0208 µM; in the assay with UACC-62 melanoma it was 13.7 µM; in the assay on A549 NSCLC it was 2.31 µM; in the assay on HL-60(TB) leukemia, below 0.0197 µM. The TGI in the assay on HCT-15 colon worked out at 14 µM; in the assay with M14 melanoma it was 5.89 µM; in the assay with MOLT-4 leukemia, 2.53 µM.

As to `CC#CC(=O)SCCNC(=O)CC`, the TGI with OVCAR-3 ovarian was above 10 µM; with SK-MEL-28 melanoma it was above 10 µM; in the assay with NCI-H522 lung it was 3.14 µM; in the assay with UACC-62 melanoma, above 10 µM; in the assay with A549 NSCLC it was above 10 µM; in the assay with HL-60(TB) leukemia, above 10 µM. Besides, the TGI in the assay with SF-295 CNS was above 10 µM; in the assay with HCT-15 colon, above 10 µM; in the assay with M14 melanoma, above 10 µM; in the assay on MOLT-4 leukemia, above 8.86 µM.

For the compound `COc1ccc(C(=O)C(c2ccc(OC)cc2)C2(O)C(=O)Nc3c2ccc(Cl)c3C)cc1` (configuration not stated), the TGI in the assay on OVCAR-3 ovarian, in the assay with SK-MEL-28 melanoma, with NCI-H522 lung, with UACC-62 melanoma, in the assay on A549 NSCLC and in the assay with HL-60(TB) leukemia was above 100 µM each time. The TGI in the assay on SF-295 CNS, in the assay on HCT-15 colon, in the assay on M14 melanoma and in the assay with MOLT-4 leukemia was above 100 µM in each case.

The term GI50 denotes the concentration at which growth is held to half of that of the control. One may read the TGI as the concentration at which net growth stops.
